Consider 13 compounds from patent publication US10071074B2, “Thieno-indole moieties and methods of treating using the same” (NERVIANO MEDICAL SCIENCES S.R.L., priority 2012, dated 2018).

For orientation: IC50 means the concentration needed to halve the response being measured.

Where a name gives a salt, the structure may show the parent alone.

The first experiment has as its system A2780 human ovarian cancer cells. Put plainly: In vitro cell proliferation assay (CellTiter-Glo). The experiment is classed as cell-based. Particulars: A2780 human ovarian cancer cells, 72 h treatment, CellTiter-Glo; read-out: IC50 value. The method, then: A2780 human ovarian and MCF7 human breast cancer cells (1250 cells/well) were seeded in white 384 well-plates in complete medium (RPMI1640 or EMEM plus 10% Fetal bovine serum) and treated with compounds dissolved in 0.1% DMSO, 24 h after seeding. The cells were incubated at 37° C. and 5% CO2 and after 72 h the plates were processed using CellTiter-Glo assay (Promega) following the manufacturer's instruction.
CellTiter-Glo is a homogenous method based on the quantification of the ATP present, an indicator of metabolitically active cells. ATP is quantified using a system based on luciferase and D-luciferin resulting into light generation. The luminescent signal is proportional to the number of cells present in culture.
Briefly, 25 μL/well of reagent solution are added to each well and after 5 minutes shaking microplates are read by a luminometer. The luminescent signal is proportional to the number of cells present in culture.
(ATP-based viability assays read luminescence as a measure of living cells.)
For the compound `Cc1csc2c(O)cc3c(c12)[C@H](CCl)CN3C(=O)c1ccc2c(NC(=O)c3ccc4cc[nH]c4c3)c[nH]c2c1` [Compd. 1], the IC50 is less than 50 nM.
As to `Cc1csc2c1[C@@]13C[C@@H]1CN(C(=O)c1ccc4c(NC(=O)c5ccc6cc[nH]c6c5)c[nH]c4c1)C3=CC2=O` [Compd. 5, N-(6-{[(3bR,4aS)-3-methyl-8-oxo-4a,5-dihydro-4H-cyclopropa[c]thieno[3,2-e]indol-6(8H)-yl]carbonyl}-1H-indol-3-yl)-1H-indole-6-carboxamide], the half-maximal inhibitory concentration (IC50) is less than 50 nM.
In the case of `Cc1csc2c1[C@]13C[C@H]1CN(C(=O)/C=C/c1c[nH]c4ncccc14)C3=CC2=O` [Compd. 7, (3bS,4aR)-3-methyl-6-[(2E)-3-(1H-pyrrolo[2,3-b]pyridin-3-yl)prop-2-enoyl]-4,4a,5,6-tetrahydro-8H-cyclopropa[c]thieno[3,2-e]indo-8-one], the half-maximal inhibitory concentration (IC50) is less than 50 nM.
With `Cc1csc2c(O)cc3c(c12)[C@H](CCl)CN3C(=O)c1cc2cc(NC(=O)c3cc4cc(NC(=O)OC(C)(C)C)ccc4[nH]3)ccc2[nH]1` [Compd. 18], the IC50 is less than 0.01 nM.
In the case of `Cc1csc2c(O)cc3c(c12)[C@H](CCl)CN3C(=O)c1cc2cc(OCCN3CCCC3)ccc2[nH]1` [Compd. 37, [(8S)-8-(chloromethyl)-4-hydroxy-1-methyl-7,8-dihydro-6H-thieno[3,2-e]indol-6-yl]{5-[2-(pyrrolidin-1-yl)ethoxy]-1H-indol-2-yl}methanone hydrochloride], the IC50 was less than 0.01 nM.
Turning to `Cc1csc2c1[C@]13C[C@H]1CN(C(=O)c1cc(NC(=O)c4cc(NC(=O)c5cc([N+](=O)[O-])cn5C)cn4C)cn1C)C3=CC2=O` [compound 6, 1-methyl-N-(1-methyl-5-{[(3bS,4aR)-3-methyl-8-oxo-4a,5-dihydro-4H-cyclopropa[c]thieno[3,2-e]indol-6(8H)-yl]carbonyl}-1H-pyrrol-3-yl)-4-4{[(1-methyl-4-nitro-1H-pyrrol-2-yl)carbonyl]amino}-1H-pyrrole-2-carboxamide], the IC50 was less than 50 nM.
On to `Cc1csc2c1[C@@]13C[C@@H]1CN(C(=O)/C=C/c1c[nH]c4ncccc14)C3=CC2=O` [compound 8, (3bR,4aS)-3-methyl-6-[(2E)-3-(1H-pyrrolo[2,3-b]pyridin-3-yl)prop-2-enoyl]-4,4a,5,6-tetrahydro-8H-cyclopropa[c]thieno[3,2-e]indol-8-one], for which the IC50 was less than 0.01 nM.
Still for that read-out and setting: next, `Cc1csc2c1[C@]13C[C@H]1CN(C(=O)Nc1cc(C(=O)Nc4cc(C(=O)Nc5cc(C(=O)NCCC(N)=O)n(C)c5)n(C)c4)n(C)c1)C3=CC2=O` [compound 9, (3bS,4aR)-N-(5-{[5-({5-[(3-amino-3-oxopropyl)carbamoyl]-1-methyl-1H-pyrrol-3-yl}carbamoyl)-1-methyl-1H-pyrrol-3-yl]carbamoyl}-1-methyl-1H-pyrrol-3-yl)-3-methyl-8-oxo-4a,5-dihydro-4H-cyclopropa[c]thieno[3,2-e]indole-6(8H)-carboxamide]: less than 50 nM; `Cc1csc2c(O)cc3c(c12)[C@H](CCl)CN3C(=O)c1cc2cc(NC(=O)c3cc4cc(OCCN5CCCC5)ccc4[nH]3)ccc2[nH]1` [compound 17, N-(2-{[(8S)-8-(chloromethyl)-4-hydroxy-1-methyl-7,8-dihydro-6H-thieno[3,2-e]indol-6-yl]carbonyl}-1H-indol-5-yl)-5-[2-(pyrrolidin-1-yl)ethoxy]-1H-indole-2-carboxamide]: less than 0.1 nM.
Take `Cc1csc2c1[C@@]13C[C@@H]1CN(C(=O)c1cc4cc(NC(=O)c5cc6cc(NC(=O)OC(C)(C)C)ccc6[nH]5)ccc4[nH]1)C3=CC2=O` [compound 20, tert-butyl {2-[(2-{[(3bR,4aS)-3-methyl-8-oxo-4a,5-dihydro-4H-cyclopropa[c]thieno[3,2-e]indol-6(8H)-yl]carbonyl}-1H-indol-5-yl)carbamoyl]-1H-indol-5-yl}carbamate]: the IC50 is less than 0.1 nM.

Staying with this experiment, now noted: Homo sapiens, A2780, 72 h, read-out: IC50 value.
As to `Cc1csc2c(OC(=O)N3CCN(C)CC3)cc3c(c12)[C@H](CCl)CN3C(=O)c1cc2cc(NC(=O)c3cc4cc(NC(=O)OC(C)(C)C)ccc4[nH]3)ccc2[nH]1` [Compd. 22, (8S)-6-({5-[({5-[(tert-butoxycarbonyl)amino]-1H-indol-2-yl}carbonyl)amino]-1H-indol-2-yl}carbonyl)-8-(chloromethyl)-1-methyl-7,8-dihydro-6H-thieno[3,2-e]indol-4-yl 4-methylpiperazine-1-carboxylate], the IC50 was less than 0.1 nM.
As for `Cc1csc2c(OC(=O)N3CCN(C)CC3)cc3c(c12)[C@H](CCl)CN3C(=O)c1cc2cc(NC(=O)c3cc4cc(N)ccc4[nH]3)ccc2[nH]1` [compound 23, (8S)-6-[(5-{[(5-amino-1H-indol-2-yl)carbonyl]amino}-1H-indo-2-yl)carbonyl]-8-(chloromethyl)-1-methyl-7,8-dihydro-6H-thieno[3,2-e]indol-4-yl 4-methylpiperazine-1-carboxylate hydrochloride], the IC50 is less than 50 nM.

Another experiment deals with cathepsin B (Homo sapiens, UniProt P07858). Put plainly: Release of a drug moiety from a conjugate in presence of cathepsin. The experiment is classed as biochemical. Particulars: 0.2 unit cathepsin B, sodium acetate buffer pH 5.5, 1 mM Cys, 2 hours at 40° C., HPLC ESI-MS analysis. Here is the method:
The conjugate A1 was incubated with 0.2 unit of cathepsin B in sodium acetate buffer pH 5.5 and 1 mM Cys for 2 hours at 40° C.
Disappearance of the conjugate A1 and release of the corresponding compound of formula (II), i.e. compd. 37, as well as of its precursor A3, confirms the breaking of the Z peptidic linker of the conjugate.
Consider `Cc1csc2c(OC(=O)N(C)CCN(C)C(=O)OCc3ccc(NC(=O)[C@H](CCCNC(N)=O)NC(=O)[C@@H](NC(=O)CCCCCN4C(=O)CC(SC[C@H](N)C(=O)O)C4=O)C(C)C)cc3)cc3c(c12)[C@H](CCl)CN3C(=O)c1cc2cc(OCCN3CCCC3)ccc2[nH]1` (stereo partly shown) [conjugate A1], for which the “release of the compound of formula (II) (compd. 37) from the conjugate” value is listed as “Complete release”.
